Reference: paper PMC9326877 (Journal of Food and Drug Analysis, 2018)

Target: P-glycoprotein (P-gp) (Sus scrofa, UniProt K7GMM7)
Format: in vitro ADME, pig (Sus scrofa domesticus)
Conditions: Landrace, pig

Sequence of P-glycoprotein (P-gp) (K7GMM7 1-1248): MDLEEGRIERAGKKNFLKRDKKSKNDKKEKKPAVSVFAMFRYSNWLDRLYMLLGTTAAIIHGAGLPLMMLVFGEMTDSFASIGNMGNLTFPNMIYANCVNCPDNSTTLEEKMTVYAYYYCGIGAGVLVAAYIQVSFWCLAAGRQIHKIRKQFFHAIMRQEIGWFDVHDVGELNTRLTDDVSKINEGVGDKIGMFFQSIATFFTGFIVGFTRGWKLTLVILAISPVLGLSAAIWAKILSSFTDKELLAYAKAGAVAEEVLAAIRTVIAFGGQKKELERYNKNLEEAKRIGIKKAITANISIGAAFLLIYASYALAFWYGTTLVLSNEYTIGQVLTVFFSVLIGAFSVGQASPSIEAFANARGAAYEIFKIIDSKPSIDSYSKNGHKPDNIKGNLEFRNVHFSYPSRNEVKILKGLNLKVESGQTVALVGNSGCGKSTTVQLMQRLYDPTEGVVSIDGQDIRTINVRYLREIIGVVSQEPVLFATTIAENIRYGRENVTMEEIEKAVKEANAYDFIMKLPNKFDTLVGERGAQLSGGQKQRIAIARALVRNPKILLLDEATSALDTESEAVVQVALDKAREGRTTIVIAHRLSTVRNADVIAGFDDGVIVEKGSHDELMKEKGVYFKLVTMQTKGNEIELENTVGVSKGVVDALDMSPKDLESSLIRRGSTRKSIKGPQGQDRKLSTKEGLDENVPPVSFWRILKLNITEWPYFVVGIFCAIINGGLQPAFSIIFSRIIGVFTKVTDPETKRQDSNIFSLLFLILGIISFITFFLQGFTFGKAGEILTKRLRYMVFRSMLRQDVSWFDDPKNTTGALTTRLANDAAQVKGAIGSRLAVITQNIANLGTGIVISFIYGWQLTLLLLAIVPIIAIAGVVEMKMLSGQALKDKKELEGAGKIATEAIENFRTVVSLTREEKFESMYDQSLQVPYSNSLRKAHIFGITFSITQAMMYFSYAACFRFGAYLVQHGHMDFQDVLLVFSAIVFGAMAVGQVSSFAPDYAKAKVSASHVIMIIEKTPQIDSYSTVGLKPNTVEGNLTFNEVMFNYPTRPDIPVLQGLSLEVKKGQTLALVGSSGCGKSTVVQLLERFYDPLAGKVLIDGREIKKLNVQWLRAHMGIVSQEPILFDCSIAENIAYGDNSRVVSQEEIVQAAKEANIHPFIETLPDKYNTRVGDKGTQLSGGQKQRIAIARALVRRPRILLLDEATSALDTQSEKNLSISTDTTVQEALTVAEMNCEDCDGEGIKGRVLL

- efflux ratio at 120 min, 5 μM: 2.2
SMILES: COC(=O)c1ccccc1-c1c2ccc(=N)cc-2oc2cc(N)ccc12 [R123, Rhodamine 123]
